Assay: Photostability of oily-solution films under solar simulator irradiation, quantified by HPLC
Assay type: physicochemical
Conditions: 2% by weight in the oil Miglyol 812, film on ground glass; irradiated one hour with Oriel solar simulator (UV-A=14.2 mW/cm^2; UV-B=0.41 mW/cm^2); HPLC vs non-irradiated controls; means over 3 samples
Experimental: The two products were dissolved at 2% by weight in the oil Miglyol 812. Approximately 10 mg of oily solution are spread over 10 cm^2 at the surface of a hollow disc made of ground glass; the amount is determined by weighing.
The films of the oily solutions are irradiated for one hour using an Oriel solar simulator (UV-A=14.2 mW/cm^2; UV-B=0.41 mW/cm^2) and then extracted with 10 ml of ethanol comprising 10% of isopropanol subjected to ultrasound for 5 min. The products are quantified by analyzing the extracts by HPLC.
HPLC conditions: column: UP5WOD-25QS, 250×4.6 mm, 5 μm, Interchrom; eluent: methanol (Comparative Example 1) and 98% methanol+2% water (Example 1); flow rate: 1 ml/min; volume injected: 10 μl; detection: diode array detector; rt (min): 5.2 (compound of the prior art) and 7.4 (compound of Example 1).
The levels of loss are determined by comparison of the amounts of product present in the irradiated samples and in the non-irradiated controls prepared simultaneously and treated in the same way (means over 3 samples; A=area/mg of solution): % loss=100×(A0−Airr)/A0

Structure (SMILES) | % of disappearance (mean loss)
CC(C)COC(=O)C(=Cc1ccc(Nc2nc(Nc3ccc(C=C(C(=O)OCC(C)C)C(=O)OCC(C)C)cc3)nc(Nc3ccc(C=C(C(=O)OCC(C)C)C(=O)OCC(C)C)cc3)n2)cc1)C(=O)OCC(C)C [Compound (prior art), 2,4,6-Tris(diisobutyl 4′-aminobenzalmalonate)-s-triazine] | 10.0%
CCCCOC(=O)c1ccc(Nc2nc(Nc3ccc(C=C(C(=O)OCC(C)(C)C)C(=O)OCC(C)(C)C)cc3)nc(Nc3ccc(C=C(C(=O)OCC(C)(C)C)C(=O)OCC(C)(C)C)cc3)n2)cc1 [Compound of formula (1), 2,4-bis(dineopentyl 4′-aminobenzalmalonate)-6-(butyl 4″-aminobenzoate)-s-triazine] | 4.6%
